Experimental data from publication PMC3854609, “Biosynthesis of Sandalwood Oil: Santalum album CYP76F Cytochromes P450 Produce Santalols and Bergamotol” (PLoS ONE, 2013).
Positions count from the first letter of the chain named.

What was measured:
Assay in all cases: GCMS product formation, yeast microsomes
Assay type in all cases: biochemical
SaCYP76F41 = biological target: T1, SaCYP76F41 (Santalum album, UniProt V5RFE4); conditions: substrate in mixture of santalenes and α-exo-bergamotene, 40 µM, NADPH 0.8 mM, pH 7.5, 30°C, 2 h, with SaCPR
T1 construct: gene CYP76F41; full-length cDNA in pYEDP60, yeast BY4741 microsomes, co-expressed with S. album CPR2 (KC842188)
T1 sequence (V5RFE4 1-509): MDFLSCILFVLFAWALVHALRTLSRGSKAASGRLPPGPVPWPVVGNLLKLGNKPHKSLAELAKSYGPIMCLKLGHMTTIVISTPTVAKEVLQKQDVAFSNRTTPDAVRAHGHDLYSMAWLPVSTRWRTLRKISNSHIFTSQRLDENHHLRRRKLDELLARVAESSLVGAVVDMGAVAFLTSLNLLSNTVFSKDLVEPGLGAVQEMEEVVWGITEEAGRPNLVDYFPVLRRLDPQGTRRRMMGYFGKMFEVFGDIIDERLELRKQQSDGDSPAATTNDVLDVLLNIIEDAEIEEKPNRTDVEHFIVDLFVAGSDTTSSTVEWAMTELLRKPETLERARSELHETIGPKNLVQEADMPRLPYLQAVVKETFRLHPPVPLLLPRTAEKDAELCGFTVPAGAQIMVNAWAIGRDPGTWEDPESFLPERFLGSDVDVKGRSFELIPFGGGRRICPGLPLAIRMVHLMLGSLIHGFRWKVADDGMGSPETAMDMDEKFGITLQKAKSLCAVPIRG

SaCYP76F39v2 = biological target: T2, SaCYP76F39v2 (Santalum album, UniProt V5RGD0); conditions: substrate in mixture of santalenes and α-exo-bergamotene, 40 µM, NADPH 0.8 mM, pH 7.5, 30°C, 2 h, with SaCPR
T2 construct: gene CYP76F39v2; full-length cDNA in pYEDP60, yeast BY4741 microsomes, co-expressed with S. album CPR2 (KC842188)
T2 sequence (V5RGD0 1-509): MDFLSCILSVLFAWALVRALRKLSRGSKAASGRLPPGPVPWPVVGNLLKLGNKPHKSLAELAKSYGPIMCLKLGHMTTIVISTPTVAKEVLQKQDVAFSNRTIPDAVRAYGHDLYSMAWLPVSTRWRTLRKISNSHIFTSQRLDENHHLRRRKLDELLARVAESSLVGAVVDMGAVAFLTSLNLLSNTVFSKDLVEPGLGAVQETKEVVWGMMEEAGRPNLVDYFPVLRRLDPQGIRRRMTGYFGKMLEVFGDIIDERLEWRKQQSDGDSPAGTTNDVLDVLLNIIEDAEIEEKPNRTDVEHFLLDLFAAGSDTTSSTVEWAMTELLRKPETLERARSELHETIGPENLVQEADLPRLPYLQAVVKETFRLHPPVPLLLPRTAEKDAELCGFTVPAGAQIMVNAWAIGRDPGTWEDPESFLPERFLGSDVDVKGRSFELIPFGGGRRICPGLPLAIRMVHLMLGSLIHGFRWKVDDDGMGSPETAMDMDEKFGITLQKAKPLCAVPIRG

SaCYP76F37v1 = biological target: T3, SaCYP76F37v1 (Santalum album, UniProt V5RGC8); conditions: NADPH 0.8 mM; potassium phosphate pH 7.5; 30°C; 20 min; with SaCPR; TLC-enriched substrate; read-out: apparent Km
T3 construct: gene CYP76F37v1; full-length cDNA in pYEDP60, yeast BY4741 microsomes, co-expressed with S. album CPR2 (KC842188)

SaCYP76F39v1 = biological target: T4, SaCYP76F39v1 (Santalum album, UniProt V5RH69); conditions: NADPH 0.8 mM; potassium phosphate pH 7.5; 30°C; 20 min; with SaCPR; TLC-enriched substrate; read-out: apparent Km
T4 construct: gene CYP76F39v1; full-length cDNA in pYEDP60, yeast BY4741 microsomes, co-expressed with S. album CPR2 (KC842188)
T4 sequence (V5RH69 1-509): T2 sequence (V5RGD0 1-509) with S9F, R21P, K22T, I103T, Y110H

[1] = products (Z)- and (E)-α-santalol
[2] = products (Z)- and (E)-β-santalol

T3 sequence (V5RGC8 1-509): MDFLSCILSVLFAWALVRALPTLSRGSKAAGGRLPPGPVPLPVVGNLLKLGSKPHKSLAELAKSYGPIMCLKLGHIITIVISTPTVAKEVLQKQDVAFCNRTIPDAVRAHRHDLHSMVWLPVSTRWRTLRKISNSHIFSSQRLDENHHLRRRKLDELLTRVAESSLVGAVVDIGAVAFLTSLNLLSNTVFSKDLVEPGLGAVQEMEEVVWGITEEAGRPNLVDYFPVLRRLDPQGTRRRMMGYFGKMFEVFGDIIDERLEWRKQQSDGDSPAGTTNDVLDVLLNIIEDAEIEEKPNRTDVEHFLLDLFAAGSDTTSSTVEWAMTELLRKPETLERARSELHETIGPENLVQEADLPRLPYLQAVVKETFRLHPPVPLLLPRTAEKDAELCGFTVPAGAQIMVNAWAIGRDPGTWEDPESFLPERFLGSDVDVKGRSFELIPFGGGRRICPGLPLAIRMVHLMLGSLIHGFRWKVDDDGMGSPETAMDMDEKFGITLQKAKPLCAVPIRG

Km (SaCYP76F37v1)	Km (SaCYP76F39v1)	Structure (SMILES)	GCMS product formation, yeast microsomes (SaCYP76F41; [1])	GCMS product formation, yeast microsomes (SaCYP76F39v2; [1])	GCMS product formation, yeast microsomes (SaCYP76F41; [2])	GCMS product formation, yeast microsomes (SaCYP76F39v2; [2])
–	–	CC(C)=CCCC1(C)C2CC3C(C2)C31C (stereo not drawn) [compound 1, α-santalene]	gave product profiles similar to that observed with CYP76F39v1	gave product profiles similar to that observed with CYP76F39v1	–	–
157 µM	34.8 µM	C=C1[C@@H]2CC[C@@H](C2)[C@@]1(C)CCC=C(C)C [compound 4, β-santalene]	–	–	gave product profiles similar to that observed with CYP76F39v1	gave product profiles similar to that observed with CYP76F39v1
